Measured values as given in article PMC11790914, “Chemogenomics for steroid hormone receptors (NR3)” (Communications Chemistry, 2025).
Entries after “also recorded” stand apart in the source; their conditions may differ. Read-outs that look alike come from different tables or passages of the source.

Assays:
NR3C1 (GR) = settings: cited from earlier work
NR3A1 (ERα) = settings: cited from earlier work; for IC50: read-out: Potency [nM] IC50, NR3A1 (ERα)
HEK293T cells = assay: Evaluation of cytotoxicity (overall: growth-rate, metabolic activity, apoptosis, necrosis); format: cell-based; settings: 24 h; for effects on growth-rate, metabolic activity and necrosis: HEK293T, budesonide (3 µM), others at tested concentration
Experimental: The selection of 40 CG candidates was acquired from commercial vendors (purity ≥95%) and applied to initial toxicity screening. Cytotoxicity was determined in HEK293T cells considering growth-rate, metabolic activity as well as apoptosis and/or necrosis induction to evaluate suitability of the compounds for CG application in cellular settings (Fig. 3a–d, Supplementary Fig. 1, Supplementary Data 1). The candidates were generally well tolerated at concentrations >>EC50/IC50 that we recommend for CG application with only four compounds showing mild toxic effects. […] In terms of cytotoxicity, all candidates thus appeared suitable for inclusion in an NR3 CG set.

[1] = cited from earlier work; for Reason for exclusion: number of annotated off-targets: other targets with annotated bioactivities at ≤10 µM in previously published dataset; for NR off-target at recom. conc.: known NR off-target at the recommended concentration; for NR off-target at recom. conc. / Other off-target at recom. conc.: ref Supplementary Table 1 (superscript references); for Other off-target at recom. conc.: known off-target outside the NR family at the recommended concentration
NR1C3 (PPARγ) = target: T1, NR1C3 (PPARγ) (Homo sapiens, UniProt P37231); assay: Gal4 hybrid reporter gene assay PPARγ; format: cell-based; settings: n=3
T1 construct: expressed in transfected cells; host or cells: HEK293T
T1 sequence (P37231 238-503 limits assumed): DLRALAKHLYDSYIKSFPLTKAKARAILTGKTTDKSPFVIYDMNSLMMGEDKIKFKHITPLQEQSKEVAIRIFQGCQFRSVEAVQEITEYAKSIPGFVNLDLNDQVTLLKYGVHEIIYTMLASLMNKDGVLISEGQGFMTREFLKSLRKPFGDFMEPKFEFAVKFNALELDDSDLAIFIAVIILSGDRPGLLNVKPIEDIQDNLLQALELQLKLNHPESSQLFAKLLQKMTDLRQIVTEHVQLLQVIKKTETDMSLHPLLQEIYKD
Experimental: (§1) Reference ligands are listed in the methods section.
(§2) HEK293T cells (ATCC, Manassas, Virgina, USA; #CRL-3216) were cultured to a maximal confluence of 70–80% in DMEM, high glucose, supplemented with 10% FCS, sodium pyruvate (1 mM), penicillin (100 U/mL), and streptomycin (100 μg/mL) at 37 °C and 5% CO2 (v/v), and seeded in clear 96-well plates (4 × 10^4 cells per well). After 20–24 h, medium was changed to Opti-MEM without supplements and the cells were transiently transfected using Lipofectamine™ LTX/Plus™ Reagents (Invitrogen, Carlsbad, California, USA; #15338100) according to the manufacturer’s protocol with pFR-Luc (reporter gene; Stratagene, Agilent Technologies, Santa Clara, California, USA; #219050), pRL-SV40 (control gene for normalization of transfection efficiency and cell growth; Promega, Fitchburg, Wisconsin, USA; #E2231) and one pFA-CMV-hNR-LBD clone coding for the hinge region and ligand binding domain (LBD) of the human NR of interest. […] Firefly (reporter) and renilla (control) luminescence were measured after 14–16 h incubation using the Dual-Glo® Luciferase Assay System (Promega, Fitchburg, Wisconsin, USA; #E2980) according to manufacturer’s protocol on a Tecan Spark® 10M multimode microplate reader (Tecan Group AG, Männedorf, Switzerland). To obtain relative light units (RLU) firefly luminescence was divided by renilla luminescence and multiplied by 1000. […]

NR2B1 (RXRα) = target: T2, NR2B1 (RXRα) (Homo sapiens, UniProt P19793); assay: Gal4 hybrid reporter gene assay RXRα; format: cell-based; settings: n=3
T2 construct: expressed in transfected cells; host or cells: HEK293T
T2 sequence (P19793 227-458 limits assumed): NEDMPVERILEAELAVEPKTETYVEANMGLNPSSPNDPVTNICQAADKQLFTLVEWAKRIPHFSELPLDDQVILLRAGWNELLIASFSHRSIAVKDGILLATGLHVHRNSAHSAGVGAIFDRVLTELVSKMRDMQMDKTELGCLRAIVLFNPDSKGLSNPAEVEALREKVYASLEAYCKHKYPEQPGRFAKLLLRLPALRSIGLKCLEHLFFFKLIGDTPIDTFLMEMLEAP
Experimental: as §1
Five hours after transfection, the cells were incubated with the NR3 CG compound candidates at the recommended concentrations by changing the medium to Opti-MEM supplemented with penicillin (100 µ/mL) and streptomycin (100 µg/mL) additionally containing 0.1% DMSO and the respective test compound or 0.1% DMSO alone as untreated control. Firefly (reporter) and renilla (control) luminescence were measured after 14–16 h incubation using the Dual-Glo® Luciferase Assay System (Promega, Fitchburg, Wisconsin, USA; #E2980) according to manufacturer’s protocol on a Tecan Spark® 10M multimode microplate reader (Tecan Group AG, Männedorf, Switzerland). To obtain relative light units (RLU) firefly luminescence was divided by renilla luminescence and multiplied by 1000. Fold activation was obtained by dividing the mean RLU of a test sample by the mean RLU of the DMSO (0.1%) control. Experiments were performed in singlets in at least three biologically independent repeats.
Supplementary Figure 1. […] Compounds are labeled according
Supplementary Figure 2. […] Compounds are
representing the NR1, NR2, NR4 and NR5 families.
scanning fluorimetry (DSF).
a concentration of 20 µM.

NR2A2 (HNF4α) = target: T3, NR2A2 (HNF4α) (Homo sapiens, UniProt P41235); assay: Gal4 hybrid reporter gene assay HNF4α; format: cell-based; settings: n=3
T3 construct: expressed in transfected cells; host or cells: HEK293T
T3 sequence (P41235 147-377 limits assumed): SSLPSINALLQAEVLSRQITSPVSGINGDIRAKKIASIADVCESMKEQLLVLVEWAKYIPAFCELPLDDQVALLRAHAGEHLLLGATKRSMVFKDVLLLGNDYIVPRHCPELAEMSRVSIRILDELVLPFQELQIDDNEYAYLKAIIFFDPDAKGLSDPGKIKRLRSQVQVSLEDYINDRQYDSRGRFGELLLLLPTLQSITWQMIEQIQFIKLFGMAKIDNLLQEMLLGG
Experimental: as §1, §2

NR1F3 (RORγ) = target: T4, NR1F3 (RORγ) (Homo sapiens, UniProt P51449); assay: Gal4 hybrid reporter gene assay RORγ; format: cell-based; settings: 3 µM, n=3
T4 construct: expressed in transfected cells; host or cells: HEK293T
T4 sequence (P51449 269-508 limits assumed): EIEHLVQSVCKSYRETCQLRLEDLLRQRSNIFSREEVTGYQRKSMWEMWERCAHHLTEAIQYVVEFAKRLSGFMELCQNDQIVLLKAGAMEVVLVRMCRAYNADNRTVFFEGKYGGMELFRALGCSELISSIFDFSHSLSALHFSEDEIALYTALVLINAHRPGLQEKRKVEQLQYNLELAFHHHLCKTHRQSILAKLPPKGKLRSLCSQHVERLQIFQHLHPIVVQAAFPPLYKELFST
Experimental: as §1, §2

NR3B2 (ERRβ) = settings: ref Supplementary Table 1, cited from earlier work

Which results are given for `CC#C[C@]1(O)CC[C@H]2[C@@H]3CCC4=CC(=O)CCC4=C3[C@@H](c3ccc(N(C)C)cc3)C[C@@]21C` [Mifepristone]?
IC50 (NR3C1 (GR); (lit.), ref Supplementary Table 1, read-out: Potency [nM] IC50, NR3C1 (GR)): 0.8 ± 0.1 nM; rel. activity from literature, NR3C1 (GR): % rem. act. of DXM (NR3C1 (GR); rem. act. of DXM (dexamethasone)): 5 ± 1%

With `C[C@@H]1Cc2c([nH]c3ccccc23)[C@@H](c2c(F)cc(/C=C/C(=O)O)cc2F)N1CC(C)(C)F` [AZD9496] as the compound, how does the IC50 (NR3A1 (ERα)) read?
The IC50 was 0.28 ± 0.04 nM.

And the “effects on growth-rate, metabolic activity and necrosis” value (HEK293T cells)?
The value was “without relevant effects”.

Which results are given for `COc1ccc(-c2coc3cc(O)cc(O)c3c2=O)cc1` [Biochanin A]?
Reason for exclusion: number of annotated off-targets [1]: > 5 off-targets; Activity on NR1C3 (PPARγ) (NR1C3 (PPARγ); 10 µM): -0.56 mean log10(fold reporter gene activity); Activity on NR2B1 (RXRα) (NR2B1 (RXRα); 10 µM): -0.68 mean log10(fold reporter gene activity); Activity on NR2A2 (HNF4α) (NR2A2 (HNF4α); 10 µM): 0.38 mean log10(fold reporter gene activity)

For `CC/C(=C(/CC)c1ccc(O)cc1)c1ccc(O)cc1` [Diethylstilbestrol], which “Cytotoxicity in HEK293T cells” value (HEK293T cells; 0.3 µM) is on record?
Its value is “non-toxic”.

For `CCCC1O[C@@H]2C[C@H]3[C@@H]4CCC5=CC(=O)C=C[C@]5(C)[C@H]4[C@@H](O)C[C@]3(C)[C@]2(C(=O)CO)O1` (some centres unmarked) [Budesonide], which “Reason for exclusion: number of annotated off-targets” value [1] is on record?
Its value is over 5 off-targets.

And the “Activity on NR1F3 (RORγ)” value (NR1F3 (RORγ))?
The value was -0.30 mean log10(fold reporter gene activity).

And the “effects on growth-rate, metabolic activity and necrosis” value (HEK293T cells)?
The value was “without relevant effects”.

Which “Activity on NR targets outside NR3 family [mean log10(fold reporter gene activity)] NR1C3 (PPARγ)” value (NR1C3 (PPARγ); 1 µM, vs. DMSO ctrl) does the source give for `COc1cc(/C=C(\C#N)C(=O)Nc2nnc(C(F)(F)F)s2)ccc1OCc1ccc(C(F)(F)F)cc1C(F)(F)F` [XCT790] here?
Its value is 0.75 log10(fold reporter gene activity).

With `C/C=C1\C(=O)C[C@H]2[C@@H]3CCC4=CC(=O)CC[C@]4(C)[C@H]3CC[C@]12C` [Z-Guggulsterone] as the compound, how does the “NR off-target at recom. conc.” value [1] read?
The value was “NR1H4; also recorded: NR1I2; also recorded: NR3A1; also recorded: NR3C1; also recorded: NR3C2”.

What about the “Reason for exclusion: number of annotated off-targets” value [1] of the same compound?
The value was over 5 off-targets.

For `Cc1ccc2c(NC[C@](O)(CC(C)(C)c3cc(F)cc4c3OCC4)C(F)(F)F)cccc2n1` [Mapracorat], which EC50 (NR3C1 (GR); (lit.), ref Supplementary Table 1, read-out: Potency [nM] EC50, NR3C1 (GR)) is on record?
Its EC50 is 1.6 ± 0.3 nM.

And the “rel. activity from literature, NR3C1 (GR): % transrepression” value (NR3C1 (GR); transrepression)?
Its value is 89 ± 4%.

Which results are given for `CC/C(=C(\c1ccc(O)cc1)c1ccc(OCCN(C)C)cc1)c1ccccc1` [(Z)-4-Hydroxytamoxifen]?
IC50 (NR3A1 (ERα)): 2 ± 1 nM; Other off-target at recom. conc. [1]: PLD1 and PLD2; IC50 (NR3B2 (ERRβ); (lit.), read-out: Potency [nM] IC50, NR3B2 (ERRβ)): 650 nM

What does the source list for `CC/C(=C(/c1ccc(/C=C/C(=O)O)cc1)c1ccc2[nH]ncc2c1)c1ccc(F)cc1Cl` [ARN810]?
IC50 (NR3A1 (ERα); (lit.), ref Supplementary Table 1): 6 nM; rel. activity from literature, NR3A1 (ERα): % ERα remaining (NR3A1 (ERα); ERα remaining (degrader), ref Supplementary Table 1): 9%; NR off-target at recom. conc. [1]: NR3C1; also recorded: NR3C2; also recorded: NR3C3; also recorded: NR3C4; Other off-target at recom. conc. [1]: GABAA and DAT; Reason for exclusion: number of annotated off-targets [1]: > 5 off-targets; Activity on NR2B1 (RXRα) (NR2B1 (RXRα); 1 µM): -0.29 mean log10(fold reporter gene activity)

With `CCN(CC)c1ccc(/C=N/NC(=O)c2ccc(O)cc2)cc1` [DY131] as the compound, how does the “rel. activity from literature, NR3B2 (ERRβ): fold activation” value (NR3B2 (ERRβ)) read?
The value was 2 fold.

What about the “Activity on NR targets outside NR3 family [mean log10(fold reporter gene activity)] NR1F3 (RORγ)” value (NR1F3 (RORγ); vs. DMSO ctrl) of the same compound?
Its value is 0.21 log10(fold reporter gene activity).

And the “Activity on NR targets outside NR3 family [mean log10(fold reporter gene activity)] NR2A2 (HNF4α)” value (NR2A2 (HNF4α); 3 µM, vs. DMSO ctrl)?
Its value is 0.29 log10(fold reporter gene activity).
